Measurements from patent US6908935B2, “Calcium receptor modulating agents” (Amgen Inc., priority 2002, dated 2005).

Target: T1, human parathyroid cell Ca^2+ receptor (hPCaR) (Homo sapiens, UniProt P41180)
T1 construct: expressed in transfected cells
T1 sequence (P41180 20-1078): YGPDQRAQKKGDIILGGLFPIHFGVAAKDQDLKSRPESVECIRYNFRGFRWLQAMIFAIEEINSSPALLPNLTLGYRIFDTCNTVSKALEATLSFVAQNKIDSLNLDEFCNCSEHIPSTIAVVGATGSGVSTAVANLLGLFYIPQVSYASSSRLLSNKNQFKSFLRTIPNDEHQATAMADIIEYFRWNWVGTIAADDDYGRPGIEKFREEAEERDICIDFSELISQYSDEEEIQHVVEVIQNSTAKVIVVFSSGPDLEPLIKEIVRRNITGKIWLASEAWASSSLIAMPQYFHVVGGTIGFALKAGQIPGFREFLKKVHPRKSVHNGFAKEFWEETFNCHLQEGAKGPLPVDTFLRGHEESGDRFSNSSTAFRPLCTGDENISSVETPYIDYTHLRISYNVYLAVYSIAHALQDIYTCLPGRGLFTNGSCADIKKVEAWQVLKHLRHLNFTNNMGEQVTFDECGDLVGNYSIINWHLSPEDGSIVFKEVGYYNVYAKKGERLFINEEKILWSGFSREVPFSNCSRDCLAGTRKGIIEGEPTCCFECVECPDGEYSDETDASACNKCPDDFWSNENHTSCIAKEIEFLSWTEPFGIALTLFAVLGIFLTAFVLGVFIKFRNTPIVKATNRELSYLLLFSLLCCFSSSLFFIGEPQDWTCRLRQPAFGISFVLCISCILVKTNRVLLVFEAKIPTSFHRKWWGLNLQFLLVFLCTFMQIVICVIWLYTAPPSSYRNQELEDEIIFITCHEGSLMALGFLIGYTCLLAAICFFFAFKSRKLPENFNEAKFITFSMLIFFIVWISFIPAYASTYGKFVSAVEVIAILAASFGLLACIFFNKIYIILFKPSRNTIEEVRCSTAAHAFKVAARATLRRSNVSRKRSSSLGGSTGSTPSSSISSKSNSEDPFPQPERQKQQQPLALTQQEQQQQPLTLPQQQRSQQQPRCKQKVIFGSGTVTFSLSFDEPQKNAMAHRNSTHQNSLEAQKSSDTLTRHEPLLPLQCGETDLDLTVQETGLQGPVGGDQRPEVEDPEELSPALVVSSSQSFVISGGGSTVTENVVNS
Test: [Ca2+]i measurement with fluo-3 in HEK 293 4.0-7 cells stably transfected with hPCaR
Format: cell-based
Conditions: fluo-3 fluorescence (485/530 nm), effect on [Ca^2+]i
Summary of the method: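 Cytosolic [Ca2+] was read as fluo-3 fluorescence (ex 485/em 530 nm) after compound addition to washed cells. Cells were hPCaR-transfected HEK 293 clone 7, dye-loaded 30 min at 37 °C with 2 μM fluo-3 acetoxymethyl ester in HEPES-buffered saline pH 7.45 containing 1 mM CaCl2 and 0.5% BSA.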

Row | Structure (SMILES) | EC50 [µM]
1 | COc1ccc(CN[C@H](C)c2ccccc2)cc1-c1cccnc1OCC1CCCO1 (stereo partly drawn) [(1R)-N-((4-(methyloxy)-3-(2-((tetrahydro-2-furanylmethyl)oxy)-3-pyridinyl)phenyl)methyl)-1-phenylethanamine] | ≤ 10
2 | COc1ccc(CN[C@H](C)c2cccc3ccccc23)cc1-c1csc(C)n1 [(1R)-N-((4-(methyloxy)-3-(2-methyl-1,3-thiazol-4-yl)phenyl)methyl)-1-(1-naphthalenyl)ethanamine] | ≤ 10
3 | COc1cccc([C@@H](C)NCc2ccc(OC)c(-c3csc(C)n3)c2)c1 [(1R)-N-((4-(methyloxy)-3-(2-methyl-1,3-thiazol-4-yl)phenyl)methyl)-1-(3-(methyloxy)phenyl)ethanamine] | ≤ 10
4 | COc1ccc(CN[C@H](C)c2ccccc2)cc1-c1csc(C)n1 [(1R)-N-((4-(methyloxy)-3-(2-methyl-1,3-thiazol-4-yl)phenyl)methyl)-1-phenylethanamine] | ≤ 10
5 | COc1ccc(CN[C@H](C)c2cccc3ccccc23)cc1-c1ccc2ccccc2c1 [(1R)-N-((4-(methyloxy)-3-(2-naphthalenyl)phenyl)methyl)-1-(1-naphthalenyl)ethanamine] | ≤ 10
6 | COc1cccc([C@@H](C)NCc2ccc(OC)c(-c3ccc4ccccc4c3)c2)c1 [(1R)-N-((4-(methyloxy)-3-(2-naphthalenyl)phenyl)methyl)-1-(3-(methyloxy)phenyl)ethanamine] | ≤ 10
7 | COc1ccc(CN[C@H](C)c2ccccc2)cc1-c1ccc2ccccc2c1 [(1R)-N-((4-(methyloxy)-3-(2-naphthalenyl)phenyl)methyl)-1-phenylethanamine] | ≤ 10
8 | COc1ccc(CN[C@H](C)c2cccc3ccccc23)cc1-c1cnccn1 [(1R)-N-((4-(methyloxy)-3-(2-pyrazinyl)phenyl)methyl)-1-(1-naphthalenyl)ethanamine] | ≤ 10
9 | COc1ccc(CN[C@H](C)c2ccc3ccccc3c2)cc1-c1cnccn1 [(1R)-N-((4-(methyloxy)-3-(2-pyrazinyl)phenyl)methyl)-1-(2-naphthalenyl)ethanamine] | ≤ 10
10 | COc1ccc(CN[C@H](C)c2ccc(C)cc2)cc1-c1cnccn1 [(1R)-N-((4-(methyloxy)-3-(2-pyrazinyl)phenyl)methyl)-1-(4-methylphenyl)ethanamine] | ≤ 10
11 | COc1ccc(CN[C@H](C)c2cccc3ccccc23)cc1-c1ccccn1 [(1R)-N-((4-(methyloxy)-3-(2-pyridinyl)phenyl)methyl)-1-(1-naphthalenyl)ethanamine] | ≤ 10
12 | COc1ccc(CN[C@H](C)c2cccc3ccccc23)cc1-c1ncccn1 [(1R)-N-((4-(methyloxy)-3-(2-pyrimidinyl)phenyl)methyl)-1-(1-naphthalenyl)ethanamine] | ≤ 10
13 | COc1ccc(CN[C@H](C)c2ccccc2)cc1-c1ncccn1 [(1R)-N-((4-(methyloxy)-3-(2-pyrimidinyl)phenyl)methyl)-1-phenylethanamine] | ≤ 10
14 | COc1ccc(CN[C@H](C)c2cccc3ccccc23)cc1-c1cccs1 [(1R)-N-((4-(methyloxy)-3-(2-thienyl)phenyl)methyl)-1-(1-naphthalenyl)ethanamine] | ≤ 10
15 | COc1ccc(CN[C@H](C)c2ccccc2)cc1-c1cccs1 [(1R)-N-((4-(methyloxy)-3-(2-thienyl)phenyl)methyl)-1-phenylethanamine] | ≤ 10
16 | COc1ccc(CN[C@H](C)c2cccc3ccccc23)cc1-c1cccnc1 [(1R)-N-((4-(methyloxy)-3-(3-pyridinyl)phenyl)methyl)-1-(1-naphthalenyl)ethanamine] | ≤ 10
17 | COc1ccc(CN[C@H](C)c2ccc(C)cc2)cc1-c1cccnc1 [(1R)-N-((4-(methyloxy)-3-(3-pyridinyl)phenyl)methyl)-1-(4-methylphenyl)ethanamine] | ≤ 10
18 | COc1ccc(CN[C@H](C)c2cccc3ccccc23)cc1-c1ccsc1 [(1R)-N-((4-(methyloxy)-3-(3-thienyl)phenyl)methyl)-1-(1-naphthalenyl)ethanamine] | ≤ 10

Row | Structure (SMILES) | EC50 [µM]
19 | COc1ccc(CN[C@H](C)c2ccc3ccccc3c2)cc1-c1ccsc1 [(1R)-N-((4-(methyloxy)-3-(3-thienyl)phenyl)methyl)-1-(2-naphthalenyl)ethanamine] | ≤ 10
20 | COc1ccc(CN[C@H](C)c2ccc(C)cc2)cc1-c1ccsc1 [(1R)-N-((4-(methyloxy)-3-(3-thienyl)phenyl)methyl)-1-(4-methylphenyl)ethanamine] | ≤ 10
21 | COc1ccc(CN[C@H](C)c2ccccc2)cc1-c1ccsc1 [(1R)-N-((4-(methyloxy)-3-(3-thienyl)phenyl)methyl)-1-phenylethanamine] | ≤ 10
22 | COc1cccc([C@@H](C)NCc2ccc(OC)c(-c3cc(OC)ccn3)c2)c1 [(1R)-N-((4-(methyloxy)-3-(4-(methyloxy)-2-pyridinyl)phenyl)methyl)-1-(3-(methyloxy)phenyl)ethanamine] | ≤ 10
23 | COc1ccnc(-c2cc(CN[C@H](C)c3ccccc3)ccc2OC)c1 [(1R)-N-((4-(methyloxy)-3-(4-(methyloxy)-2-pyridinyl)phenyl)methyl)-1-phenylethanamine] | ≤ 10
24 | COc1ccc(CN[C@H](C)c2cccc3ccccc23)cc1C1CCNCC1 [(1R)-N-((4-(methyloxy)-3-(4-piperidinyl)phenyl)methyl)-1-(1-naphthalenyl)ethanamine] | ≤ 10
25 | COc1ccc(-c2cc(CN[C@H](C)c3cccc4ccccc34)ccc2OC)nc1 [(1R)-N-((4-(methyloxy)-3-(5-(methyloxy)-2-pyridinyl)phenyl)methyl)-1-(1-naphthalenyl)ethanamine] | ≤ 10
26 | COc1ccc(-c2cc(CN[C@H](C)c3cccc(OC)c3)ccc2OC)nc1 [(1R)-N-((4-(methyloxy)-3-(5-(methyloxy)-2-pyridinyl)phenyl)methyl)-1-(3-(methyloxy)phenyl)ethanamine] | ≤ 10
27 | COc1ccc(-c2cc(CN[C@H](C)c3ccccc3)ccc2OC)nc1 [(1R)-N-((4-(methyloxy)-3-(5-(methyloxy)-2-pyridinyl)phenyl)methyl)-1-phenylethanamine] | ≤ 10
28 | COc1ccc(CN[C@H](C)c2cccc3ccccc23)cc1-c1nnc(C(F)(F)F)o1 [(1R)-N-((4-(methyloxy)-3-(5-(trifluoromethyl)-1,3,4-oxadiazol-2-yl)phenyl)methyl)-1-(1-naphthalenyl)ethanamine] | ≤ 10
29 | COc1ccc(CN[C@H](C)c2ccccc2)cc1-c1nnc(C(F)(F)F)o1 [(1R)-N-((4-(methyloxy)-3-(5-(trifluoromethyl)-1,3,4-oxadiazol-2-yl)phenyl)methyl)-1-phenylethanamine] | ≤ 10
30 | COc1ccc(CN[C@H](C)c2ccc(C)cc2)cc1-c1cncnc1 [(1R)-N-((4-(methyloxy)-3-(5-pyrimidinyl)phenyl)methyl)-1-(4-methylphenyl)ethanamine] | ≤ 10
31 | COc1ccc(CN[C@H](C)c2ccccc2)cc1-c1cncnc1 [(1R)-N-((4-(methyloxy)-3-(5-pyrimidinyl)phenyl)methyl)-1-phenylethanamine] | ≤ 10
32 | COc1ccc(CN[C@H](C)c2cccc3ccccc23)cc1-c1ccc(OCC(F)(F)F)nc1 [(1R)-N-((4-(methyloxy)-3-(6-((2,2,2-trifluoroethyl)oxy)-3-pyridinyl)phenyl)methyl)-1-(1-naphthalenyl)ethanamine] | ≤ 10
33 | COc1ccc(CN[C@H](C)c2ccccc2)cc1-c1ccc(OCC(F)(F)F)nc1 [(1R)-N-((4-(methyloxy)-3-(6-((2,2,2-trifluoroethyl)oxy)-3-pyridinyl)phenyl)methyl)-1-phenylethanamine] | ≤ 10
34 | COc1ccc(CN[C@H](C)c2cccc3ccccc23)cc1-c1ccc(OCCN2CCCC2)nc1 [(1R)-N-((4-(methyloxy)-3-(6-((2-(1-pyrrolidinyl)ethyl)oxy)-3-pyridinyl)phenyl)methyl)-1-(1-naphthalenyl)ethanamine] | ≤ 10
35 | COc1ccc(CN[C@H](C)c2ccccc2)cc1-c1ccc(OCCN2CCCC2)nc1 [(1R)-N-((4-(methyloxy)-3-(6-((2-(1-pyrrolidinyl)ethyl)oxy)-3-pyridinyl)phenyl)methyl)-1-phenylethanamine] | ≤ 10
36 | COCCOc1ccc(-c2cc(CN[C@H](C)c3ccccc3)ccc2OC)cn1 [(1R)-N-((4-(methyloxy)-3-(6-((2-(methyloxy)ethyl)oxy)-3-pyridinyl)phenyl)methyl)-1-phenylethanamine] | ≤ 10
